Columns and labels:
[1] = biological target: Tyrosine-protein kinase Fyn (Homo sapiens) (UniProt P06241); details: Compound concentration 1000.0 nM
[2] = biological target: T1, Mitogen-activated protein kinase kinase kinase 7 (Homo sapiens) (UniProt O43318); details: Compound concentration 1000.0 nM
T1 sequence (whole entry): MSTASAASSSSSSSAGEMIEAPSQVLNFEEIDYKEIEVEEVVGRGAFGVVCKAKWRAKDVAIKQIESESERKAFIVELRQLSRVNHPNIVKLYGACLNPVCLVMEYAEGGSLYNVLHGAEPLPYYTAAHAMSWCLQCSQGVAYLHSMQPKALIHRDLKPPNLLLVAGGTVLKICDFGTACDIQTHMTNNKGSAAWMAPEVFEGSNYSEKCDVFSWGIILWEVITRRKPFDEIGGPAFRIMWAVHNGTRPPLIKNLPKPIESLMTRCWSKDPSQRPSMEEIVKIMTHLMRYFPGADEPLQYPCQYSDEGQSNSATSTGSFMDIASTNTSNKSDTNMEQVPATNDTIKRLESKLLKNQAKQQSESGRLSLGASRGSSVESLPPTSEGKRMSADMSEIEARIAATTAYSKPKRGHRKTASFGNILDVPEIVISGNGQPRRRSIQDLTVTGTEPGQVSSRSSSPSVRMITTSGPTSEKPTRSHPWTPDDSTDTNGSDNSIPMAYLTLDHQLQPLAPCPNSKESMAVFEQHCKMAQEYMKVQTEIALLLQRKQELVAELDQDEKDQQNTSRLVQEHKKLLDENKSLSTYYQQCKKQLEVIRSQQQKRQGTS

[3] = biological target: Receptor-interacting serine/threonine-protein kinase 4 (Homo sapiens) (UniProt P57078); details: Compound concentration 1000.0 nM
[4] = biological target: Serine/threonine-protein kinase tousled-like 2 (Homo sapiens) (UniProt Q86UE8); details: Compound concentration 1000.0 nM
Sequence of Serine/threonine-protein kinase tousled-like 2 (Homo sapiens) (Q86UE8 whole entry, looked up): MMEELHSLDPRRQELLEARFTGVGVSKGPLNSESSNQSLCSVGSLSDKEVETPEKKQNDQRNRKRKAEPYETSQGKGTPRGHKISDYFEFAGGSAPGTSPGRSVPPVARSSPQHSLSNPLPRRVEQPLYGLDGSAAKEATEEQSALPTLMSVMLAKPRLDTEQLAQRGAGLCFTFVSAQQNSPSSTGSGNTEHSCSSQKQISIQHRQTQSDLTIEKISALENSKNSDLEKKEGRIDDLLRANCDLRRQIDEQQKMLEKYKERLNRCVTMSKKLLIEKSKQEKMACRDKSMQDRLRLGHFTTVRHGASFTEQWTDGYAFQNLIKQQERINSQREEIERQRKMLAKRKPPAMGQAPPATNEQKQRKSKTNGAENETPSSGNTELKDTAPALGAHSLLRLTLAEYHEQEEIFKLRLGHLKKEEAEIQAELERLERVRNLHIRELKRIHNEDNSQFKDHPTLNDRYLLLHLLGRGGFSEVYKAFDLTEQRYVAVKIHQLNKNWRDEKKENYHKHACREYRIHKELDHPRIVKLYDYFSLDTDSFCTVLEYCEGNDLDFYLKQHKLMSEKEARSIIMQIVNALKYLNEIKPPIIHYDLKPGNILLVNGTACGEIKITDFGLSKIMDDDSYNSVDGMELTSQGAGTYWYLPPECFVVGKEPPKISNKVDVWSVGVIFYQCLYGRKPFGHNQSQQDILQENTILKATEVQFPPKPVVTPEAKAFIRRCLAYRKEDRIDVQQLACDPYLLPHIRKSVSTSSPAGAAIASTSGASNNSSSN

[5] = biological target: Calcium-dependent protein kinase 1 (Plasmodium falciparum) (UniProt P62344); details: Compound concentration 1000.0 nM
Sequence of Calcium-dependent protein kinase 1 (Plasmodium falciparum) (P62344 2-524 limits assumed): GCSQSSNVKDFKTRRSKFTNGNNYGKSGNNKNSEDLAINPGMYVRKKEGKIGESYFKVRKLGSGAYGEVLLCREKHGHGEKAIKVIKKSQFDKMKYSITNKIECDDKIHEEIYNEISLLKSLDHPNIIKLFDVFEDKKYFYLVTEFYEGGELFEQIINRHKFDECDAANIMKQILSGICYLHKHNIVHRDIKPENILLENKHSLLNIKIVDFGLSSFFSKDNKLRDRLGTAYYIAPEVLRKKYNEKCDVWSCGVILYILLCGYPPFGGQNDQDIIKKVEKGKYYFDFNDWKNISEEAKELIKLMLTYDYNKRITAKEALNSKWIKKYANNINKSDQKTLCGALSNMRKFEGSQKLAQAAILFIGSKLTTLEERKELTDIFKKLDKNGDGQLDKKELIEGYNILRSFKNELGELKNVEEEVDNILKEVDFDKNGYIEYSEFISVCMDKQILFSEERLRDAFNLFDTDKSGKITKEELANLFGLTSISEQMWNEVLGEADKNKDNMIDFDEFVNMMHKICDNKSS

[6] = biological target: BDNF/NT-3 growth factors receptor (Homo sapiens) (UniProt Q16620); details: Compound concentration 1000.0 nM
[7] = biological target: Ribosomal protein S6 kinase alpha-5 (Homo sapiens, UniProt O75582); details: Compound concentration 1000.0 nM
[8] = biological target: Atypical kinase COQ8B, mitochondrial (Homo sapiens) (UniProt Q96D53); details: Compound concentration 1000.0 nM
[9] = biological target: Ribosomal protein S6 kinase alpha-2 (Homo sapiens, UniProt Q15349); details: Compound concentration 1000.0 nM
[10] = tested on: Tyrosine-protein kinase ABL1 (Homo sapiens), P00519 [T315I]; details: Compound concentration 1000.0 nM
[11] = biological target: Ephrin type-A receptor 2 (Homo sapiens) (UniProt P29317); details: Compound concentration 1000.0 nM
[12] = biological target: 5'-AMP-activated protein kinase catalytic subunit alpha-2 (Homo sapiens, UniProt P54646); details: Compound concentration 1000.0 nM
Sequence of 5'-AMP-activated protein kinase catalytic subunit alpha-2 (P54646 whole entry, looked up): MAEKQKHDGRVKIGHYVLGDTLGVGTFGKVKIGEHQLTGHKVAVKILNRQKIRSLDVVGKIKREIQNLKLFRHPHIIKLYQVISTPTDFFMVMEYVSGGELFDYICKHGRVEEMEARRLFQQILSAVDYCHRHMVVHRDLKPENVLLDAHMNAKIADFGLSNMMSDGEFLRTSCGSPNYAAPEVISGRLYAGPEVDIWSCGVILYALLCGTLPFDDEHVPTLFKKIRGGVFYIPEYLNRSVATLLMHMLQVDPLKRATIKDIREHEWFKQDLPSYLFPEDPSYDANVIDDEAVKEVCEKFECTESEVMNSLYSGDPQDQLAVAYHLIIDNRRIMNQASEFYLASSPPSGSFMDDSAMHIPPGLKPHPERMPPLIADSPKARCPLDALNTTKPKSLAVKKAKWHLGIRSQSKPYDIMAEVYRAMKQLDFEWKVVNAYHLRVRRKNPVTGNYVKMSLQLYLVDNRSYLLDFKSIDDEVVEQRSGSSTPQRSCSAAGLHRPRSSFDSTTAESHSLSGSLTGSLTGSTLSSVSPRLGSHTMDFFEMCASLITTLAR

[13] = biological target: Platelet-derived growth factor receptor alpha (Homo sapiens) (UniProt P16234); details: Compound concentration 1000.0 nM
[14] = biological target: 5-hydroxytryptamine receptor 1E (Homo sapiens) (UniProt P28566); details: Compound concentration 10.0 uM
Sequence of 5-hydroxytryptamine receptor 1E (Homo sapiens) (P28566 whole entry): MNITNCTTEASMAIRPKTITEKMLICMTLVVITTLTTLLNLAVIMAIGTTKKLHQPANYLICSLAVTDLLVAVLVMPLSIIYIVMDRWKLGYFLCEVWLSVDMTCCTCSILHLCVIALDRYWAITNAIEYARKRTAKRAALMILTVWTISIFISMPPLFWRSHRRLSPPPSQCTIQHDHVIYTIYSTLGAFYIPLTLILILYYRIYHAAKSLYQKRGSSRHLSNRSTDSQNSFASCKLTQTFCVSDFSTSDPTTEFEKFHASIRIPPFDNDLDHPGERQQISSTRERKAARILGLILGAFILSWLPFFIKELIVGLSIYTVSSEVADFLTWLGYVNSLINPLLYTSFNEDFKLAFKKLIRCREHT

[15] = biological target: Glycogen synthase kinase-3 beta (Homo sapiens) (UniProt P49841); details: Compound concentration 1000.0 nM
[16] = biological target: Insulin receptor-related protein (Homo sapiens) (UniProt P14616); details: Compound concentration 1000.0 nM
[17] = biological target: Dual specificity tyrosine-phosphorylation-regulated kinase 1B (Homo sapiens) (UniProt Q9Y463); details: Compound concentration 1000.0 nM
Sequence of Dual specificity tyrosine-phosphorylation-regulated kinase 1B (Homo sapiens) (Q9Y463 whole entry, looked up): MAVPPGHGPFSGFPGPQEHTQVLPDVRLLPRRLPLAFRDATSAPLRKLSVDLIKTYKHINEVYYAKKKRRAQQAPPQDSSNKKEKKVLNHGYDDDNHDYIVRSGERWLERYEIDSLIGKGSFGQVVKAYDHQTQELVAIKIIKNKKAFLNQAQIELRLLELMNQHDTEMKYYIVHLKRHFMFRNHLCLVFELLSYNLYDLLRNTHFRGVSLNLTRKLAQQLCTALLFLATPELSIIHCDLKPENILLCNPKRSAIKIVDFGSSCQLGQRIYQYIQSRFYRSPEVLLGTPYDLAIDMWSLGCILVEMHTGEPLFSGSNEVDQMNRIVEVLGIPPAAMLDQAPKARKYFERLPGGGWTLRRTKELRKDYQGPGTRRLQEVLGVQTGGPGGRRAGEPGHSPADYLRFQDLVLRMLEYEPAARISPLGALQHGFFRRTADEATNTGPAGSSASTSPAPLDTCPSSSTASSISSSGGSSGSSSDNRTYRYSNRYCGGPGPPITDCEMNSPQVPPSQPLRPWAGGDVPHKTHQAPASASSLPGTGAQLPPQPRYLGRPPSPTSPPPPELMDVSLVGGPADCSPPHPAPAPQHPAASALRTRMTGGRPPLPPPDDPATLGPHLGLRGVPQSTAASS

[18] = biological target: Interleukin-1 receptor-associated kinase 1 (Homo sapiens) (UniProt P51617); details: Compound concentration 1000.0 nM
[19] = biological target: Hepatocyte growth factor receptor (Homo sapiens) (UniProt P08581); details: Compound concentration 1000.0 nM
[20] = biological target: T2, Serine/threonine-protein kinase 4 (Homo sapiens) (UniProt Q13043); details: Compound concentration 1000.0 nM
T2 sequence (whole entry): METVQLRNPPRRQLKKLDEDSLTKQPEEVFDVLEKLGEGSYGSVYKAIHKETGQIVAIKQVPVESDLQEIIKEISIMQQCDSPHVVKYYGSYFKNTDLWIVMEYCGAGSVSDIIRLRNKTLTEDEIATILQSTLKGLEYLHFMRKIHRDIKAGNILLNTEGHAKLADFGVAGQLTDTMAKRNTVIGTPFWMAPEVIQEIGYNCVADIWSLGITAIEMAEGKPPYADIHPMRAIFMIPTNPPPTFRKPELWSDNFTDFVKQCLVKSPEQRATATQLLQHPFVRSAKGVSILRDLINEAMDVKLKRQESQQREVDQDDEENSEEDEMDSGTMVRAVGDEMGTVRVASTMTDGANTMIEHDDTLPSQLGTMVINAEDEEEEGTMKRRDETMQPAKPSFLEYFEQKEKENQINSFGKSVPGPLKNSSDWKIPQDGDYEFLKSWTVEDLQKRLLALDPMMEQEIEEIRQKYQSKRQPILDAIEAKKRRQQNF

[21] = biological target: Serine/threonine-protein kinase TNNI3K (Homo sapiens) (UniProt Q59H18); details: Compound concentration 1000.0 nM
Sequence of Serine/threonine-protein kinase TNNI3K (Homo sapiens) (Q59H18 whole entry): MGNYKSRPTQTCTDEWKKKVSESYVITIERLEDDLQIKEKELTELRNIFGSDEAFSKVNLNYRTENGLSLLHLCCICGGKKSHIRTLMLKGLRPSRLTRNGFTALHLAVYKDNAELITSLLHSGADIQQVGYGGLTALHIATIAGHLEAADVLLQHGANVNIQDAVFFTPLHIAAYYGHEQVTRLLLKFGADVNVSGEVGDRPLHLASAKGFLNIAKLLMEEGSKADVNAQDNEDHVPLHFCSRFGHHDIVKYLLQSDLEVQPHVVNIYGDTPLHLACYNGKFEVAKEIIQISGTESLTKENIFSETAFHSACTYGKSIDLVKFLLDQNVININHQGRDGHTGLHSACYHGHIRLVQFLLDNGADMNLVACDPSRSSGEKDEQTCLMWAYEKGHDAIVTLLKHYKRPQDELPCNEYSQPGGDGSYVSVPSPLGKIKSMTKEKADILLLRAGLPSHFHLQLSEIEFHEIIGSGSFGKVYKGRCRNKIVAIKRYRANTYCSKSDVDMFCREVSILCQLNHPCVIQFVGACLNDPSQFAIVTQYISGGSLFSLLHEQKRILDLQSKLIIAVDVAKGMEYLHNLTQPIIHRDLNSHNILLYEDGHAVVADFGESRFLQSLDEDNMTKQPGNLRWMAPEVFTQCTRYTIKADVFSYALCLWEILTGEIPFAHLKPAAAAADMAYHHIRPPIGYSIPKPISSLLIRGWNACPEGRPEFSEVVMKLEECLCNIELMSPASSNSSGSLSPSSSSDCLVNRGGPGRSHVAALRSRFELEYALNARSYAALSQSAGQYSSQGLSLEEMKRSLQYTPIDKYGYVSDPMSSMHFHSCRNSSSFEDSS

[22] = biological target: Serine/threonine-protein kinase SIK3 (Homo sapiens) (UniProt Q9Y2K2); details: Compound concentration 1000.0 nM
[23] = biological target: Mast/stem cell growth factor receptor Kit (Homo sapiens) (UniProt P10721); details: Compound concentration 1000.0 nM
[24] = biological target: Fibroblast growth factor receptor 3 (Homo sapiens) (UniProt P22607); details: Compound concentration 1000.0 nM
[25] = biological target: Serine/threonine-protein kinase PLK4 (Homo sapiens) (UniProt O00444); details: Compound concentration 1000.0 nM
Sequence of Serine/threonine-protein kinase PLK4 (Homo sapiens) (O00444 whole entry): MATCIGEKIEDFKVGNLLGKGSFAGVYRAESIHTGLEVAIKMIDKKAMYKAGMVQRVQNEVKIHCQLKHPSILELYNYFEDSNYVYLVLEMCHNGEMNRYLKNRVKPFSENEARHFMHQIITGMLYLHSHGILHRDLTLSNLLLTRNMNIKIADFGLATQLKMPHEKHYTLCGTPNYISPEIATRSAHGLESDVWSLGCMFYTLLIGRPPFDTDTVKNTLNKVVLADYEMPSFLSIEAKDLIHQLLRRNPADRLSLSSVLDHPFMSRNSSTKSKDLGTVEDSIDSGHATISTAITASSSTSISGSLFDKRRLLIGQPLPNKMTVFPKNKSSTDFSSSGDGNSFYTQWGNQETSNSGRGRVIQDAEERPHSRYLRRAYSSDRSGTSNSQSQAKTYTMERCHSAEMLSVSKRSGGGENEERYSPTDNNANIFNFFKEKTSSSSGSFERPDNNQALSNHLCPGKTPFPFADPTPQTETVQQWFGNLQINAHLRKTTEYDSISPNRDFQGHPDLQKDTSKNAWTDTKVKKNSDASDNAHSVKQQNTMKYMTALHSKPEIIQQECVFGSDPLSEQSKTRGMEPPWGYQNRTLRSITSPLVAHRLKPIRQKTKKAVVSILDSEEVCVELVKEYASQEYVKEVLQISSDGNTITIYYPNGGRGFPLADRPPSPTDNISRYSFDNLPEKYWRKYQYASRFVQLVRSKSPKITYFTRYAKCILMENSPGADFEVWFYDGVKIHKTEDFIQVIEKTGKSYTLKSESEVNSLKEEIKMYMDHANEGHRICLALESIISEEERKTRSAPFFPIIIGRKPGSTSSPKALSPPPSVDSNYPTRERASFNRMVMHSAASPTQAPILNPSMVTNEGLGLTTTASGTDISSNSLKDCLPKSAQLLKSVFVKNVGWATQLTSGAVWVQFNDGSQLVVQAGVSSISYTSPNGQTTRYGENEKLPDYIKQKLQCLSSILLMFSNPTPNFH

[26] = biological target: Ribosomal protein S6 kinase alpha-6 (Homo sapiens) (UniProt Q9UK32); details: Compound concentration 1000.0 nM
[27] = biological target: 5-hydroxytryptamine receptor 2A (Homo sapiens) (UniProt P28223); details: Compound concentration 10.0 uM
[28] = biological target: Tyrosine-protein kinase Fer (Homo sapiens) (UniProt P16591); details: Compound concentration 1000.0 nM
[29] = biological target: High affinity nerve growth factor receptor (Homo sapiens) (UniProt P04629); details: Compound concentration 1000.0 nM

CCc1ccccc1C(=O)Nc1n[nH]c2c(C)c(F)c(C3C(C#N)=C(C)N(C)C(C)=C3C#N)cc12 [BAY-3827]
residual activity [1]: 100%
residual activity [2]: 92%
residual activity [3]: 92%
residual activity [4]: 100%
residual activity [5]: 100%
residual activity [6]: 100%
residual activity [7]: 90%
residual activity [8]: 96%
residual activity [9]: 100%
residual activity [10]: 100%
residual activity [11]: 61%
residual activity [12]: 0%
residual activity [13]: 100%
inhibition [14]: 2.66%
residual activity [15]: 100%
residual activity [16]: 99%
residual activity [17]: 100%
residual activity [18]: 100%
residual activity [19]: 7.3%
residual activity [20]: 98%
residual activity [21]: 87%
residual activity [22]: 74%
residual activity [23]: 84%
residual activity [24]: 93%
residual activity [25]: 100%
residual activity [26]: 100%
inhibition [27]: 14.8%
residual activity [28]: 90%
residual activity [29]: 97%

CC1=C(C#N)C(c2ccc3c(c2)c(NC(=O)c2ccccc2C)nn3C)C(C#N)=C(C)N1 [BAY-974]
residual activity [1]: 100%
residual activity [2]: 74%
residual activity [3]: 78%
residual activity [4]: 100%
residual activity [5]: 98%
residual activity [6]: 72%
residual activity [7]: 87%
residual activity [8]: 100%
residual activity [9]: 94%
residual activity [10]: 88%
residual activity [11]: 82%
residual activity [12]: 99%
residual activity [13]: 86%
inhibition [14]: 11.4%
residual activity [15]: 81%
residual activity [16]: 100%
residual activity [17]: 63%
residual activity [18]: 75%
residual activity [19]: 24%
residual activity [20]: 80%
residual activity [21]: 96%
residual activity [22]: 81%
residual activity [23]: 100%
residual activity [24]: 94%
residual activity [25]: 100%
residual activity [26]: 83%
inhibition [27]: 8.41%
residual activity [28]: 88%
residual activity [29]: 77%
